Laboratory results: patent US4636490A, “Novel peptidic derivatives inhibiting gastric secretion, process for preparing them and drugs containing them” (Sanofi, priority 1983, dated 1987)
Residues, ends and D or L forms follow the SMILES beside them. *: point of attachment. Cbz = O=C(OCc1ccccc1)*; Boc = CC(C)(C)OC(=O)*

Tests used:
[1] = system: gastric secretion; assay: Agonist effect: gastric secretory effect of the peptide administered alone i.v., stomach of a reperfused, anaesthetized rat; type: in vivo; settings: anaesthetized male Wistar rat
Excerpt: (§1) The compounds according to the invention were studied as far as their therapeutical properties are concerned. More particularly, these compounds were studied in vivo as far as their gastric secretory effect in the rat is concerned. The model chosen for measuring the secretory effect is that of the stomach of a reperfused, anaesthetized rat. The protocol followed is a modification of the one described previously by Ghosh and Schild. A male rat of Wistar strain, weighing 300 g, having fasted for 18 hours, is anaesthetized with urethane (10% solution, 1.5 ml/100 g i.p.). A tracheotomy is then made, as well as a catheterism of the vein of the penis which will allow i.v. administration of the peptides. A cannula is then placed in the oesophagus up to the cardiac orifice and a second cannula in the duodenum (by a duodenotomy made about 3 cm from the pylorus) up to the antral gastric zone. A propionic-succinic solute (pH 5.5) which gives a linear variation of the pH as a function of the concentration of H^+ ions is used for perfusing the stomach in open or closed circuit with a flow rate of 3 ml/min. The body temperature, as well as that of the solute, is monitored and maintained at 30° C. The acid secretion of the stomach will bring about a variation in pH detected by the glass half-cell and recorded as a function of time. After stabilization of the basal secretion, gastrin is injected by the intravenous route, either in perfusion or in a single injection. The response is recorded as a function of time and the quantity of acid secretion is measured on the recording by difference with the basal secretion. The same experiment is carried out either by injecting the peptide to be studied i.v. on a plateau of acid secretion stimulated by the gastrin, or by associating the peptide with the stimulant in variable ratios of concentration. Finally, the peptide is administered alone at different doses in order to examine its agonist effect.

[2] = system: gastric secretion stimulated by the gastrin; assay: Antagonist effect: inhibition of gastrin (minigastrin)-stimulated acid secretion, stomach of a reperfused, anaesthetized rat; type: in vivo
Excerpt: as §1

[3] = agonist minigastrin 0.6 μg/kg (single), dose of antagonist 1.5 mg/kg i.v.

| Compound | Secretary effect (40 mins.) ([1]; dose 1000 μg/kg) | Inhibiting effect (%) [2, 3] | Inhibiting effect (%) ([2]; agonist minigastrin 1.5 μg/kg/hr (perfusion), dose of antagonist 1.5 mg/kg i.v.) | Secretary effect (40 mins.) ([1]; dose 5000 μg/kg) | Inhibiting effect (%) ([2]; agonist minigastrin 0.6 μg/kg (single), dose of antagonist 1.2 mg/kg i.v.) | Secretary effect (40 mins.) ([1]; dose 10000 μg/kg) |
| --- | --- | --- | --- | --- | --- | --- |
| Z--Tyr(HSO3)--Met--Gly--Trp--Met--Asp--NH2 [Example 3] | 0.15 μmol H^+ | 47% | 47.4% | – | – | – |
| CSCC[C@H](NC(=O)[C@H](Cc1c[nH]c2ccccc12)NC(=O)CNC(=O)[C@H](Cc1ccc(O)cc1)NC(=O)OC(C)(C)C)C(=O)N[C@@H](CC(=O)O)C(N)=O [Example 4, Boc--Tyr--Gly--Trp--Met--Asp--NH2] (Boc-YGWMD-NH2) | – | – | – | 0.1 μmol H^+ | 50.4% | – |
| CSCC[C@H](NC(=O)[C@H](Cc1c[nH]c2ccccc12)NC(=O)CNC(=O)[C@H](Cc1ccc(O)cc1)NC(=O)[C@H](C)NC(=O)[C@H](CCC(=O)O)NC(=O)OCc1ccccc1)C(=O)N[C@@H](CC(=O)O)C(N)=O [Example 5, Z--Glu--Ala--Tyr--Gly--Trp--Met--Asp--NH2] (Cbz-EAYGWMD-NH2) | – | 50% | – | – | – | 0 μmol H^+ |
